The values below come from patent publication US11098044B2, “Imidazopyridinyl compounds and use thereof for treatment of neurodegenerative disorders” (1ST Biotherapeutics, Inc., priority 2019, dated 2021).

Molecules are shown by their SMILES.

What all share (format): biochemical
The target of assay [1] is LRRK2 G2019S (Homo sapiens (Human), UniProt Q5S007, G2019S). The assay can be described thus: LRRK2 G2019S Kinase Assay (Adapta). Particulars: 100 μM ATP, LRRKtide substrate; read-out: LRRK2_G2019S IC50. How it is done:
(§1) The LRRK2 and LRRK2 G2019S kinase assays were performed using the Adapta™ technology in ThermoFisher Scientific. This experiment was carried out according to the supplier's protocol. Briefly, assay conditions were as follows. The mixture of substrate (LRRKtide) and each kinase was prepared in 50 mM Tris pH 8.5, 0.01% BRIJ-35, 10 mM MgCl2, 1 mM EGTA, 0.02% NaN3. Assays were performed in the presence of 70 μM ATP and 100 μM ATP (KmATP) in LRRK2 and LRRK2 G2019S, respectively. The reaction was progressed at room temperature for 1 hour. Upon completion of kinase reaction, 5 μL of Detection Mix was added and after 60 min incubation time, the emission ratio of 665/615 nm was calculated.

Assay [2] addresses LRRK2 (WT) (Homo sapiens (Human), UniProt Q5S007). The assay can be described thus: LRRK2 Kinase Assay (Adapta). The following applies: 70 μM ATP, LRRKtide substrate. The protocol:
as §1

Assay [3] addresses c-Abl (His-tagged recombinant human ABL1) (Homo sapiens (Human), UniProt P00519). The assay can be described thus: c-abl Kinase Assay (ADP-Glo). Particulars: ATP (25 μM), Abltide substrate. The protocol: ADP-Glo assay kit was purchased from Promega. Magnesium chloride (MgCl2), bovine serum albumin (BSA), ethylene glycol-bis(p-aminoethyl ether)-N,N,N′,N′-tetraacetic acid (EGTA), triton X-100, 1,4-dithiothreitol (DTT) and dimethyl sulfoxide (DMSO) were purchased from Sigma-Aldrich. HEPES buffer was purchased from Gibco. ABL1 kinase and Abltide were purchased from Signalchem.
c-Abl kinase activity was measured by Promega's ADP-Glo™ Assay. In this assay, His-tagged recombinant human ABL1 (0.25 ng/μl) is incubated with 5 μL of compounds (0.5% DMSO), 5 μL of Abltide (0.01 μg/μl) and 5 μL of ATP (25 μM) in buffer (50 mM HEPES, 7.5; 10 mM MgCl2; 1 mM EGTA; 0.05% BSA; 0.01% Triton X-100; 2 mM DTT). The assay was started by incubating the reaction mixture in a 96-well plate at 30° C. for 30-min. After the incubation, 25 μL ADP-Glo reagent was added and the reaction was incubated at room temperature for 40-min to stop the reaction and degrade residual ATP. The ADP product was then converted to ATP by adding 50 μL per well of detection reagent. Luminescence was detected after 30-min room temperature incubation with the Molecular device I3X plate reader. The IC50 values were calculated from a series of percent inhibition values determined at a range of inhibitor concentration using software routines as implemented in the GraphPad Prism 7 software and Sigma Plot 13.0.
In general terms: ADP-Glo first removes unused ATP, then detects ADP through luciferase.

Sequence of c-Abl (His-tagged recombinant human ABL1) (P00519 whole entry): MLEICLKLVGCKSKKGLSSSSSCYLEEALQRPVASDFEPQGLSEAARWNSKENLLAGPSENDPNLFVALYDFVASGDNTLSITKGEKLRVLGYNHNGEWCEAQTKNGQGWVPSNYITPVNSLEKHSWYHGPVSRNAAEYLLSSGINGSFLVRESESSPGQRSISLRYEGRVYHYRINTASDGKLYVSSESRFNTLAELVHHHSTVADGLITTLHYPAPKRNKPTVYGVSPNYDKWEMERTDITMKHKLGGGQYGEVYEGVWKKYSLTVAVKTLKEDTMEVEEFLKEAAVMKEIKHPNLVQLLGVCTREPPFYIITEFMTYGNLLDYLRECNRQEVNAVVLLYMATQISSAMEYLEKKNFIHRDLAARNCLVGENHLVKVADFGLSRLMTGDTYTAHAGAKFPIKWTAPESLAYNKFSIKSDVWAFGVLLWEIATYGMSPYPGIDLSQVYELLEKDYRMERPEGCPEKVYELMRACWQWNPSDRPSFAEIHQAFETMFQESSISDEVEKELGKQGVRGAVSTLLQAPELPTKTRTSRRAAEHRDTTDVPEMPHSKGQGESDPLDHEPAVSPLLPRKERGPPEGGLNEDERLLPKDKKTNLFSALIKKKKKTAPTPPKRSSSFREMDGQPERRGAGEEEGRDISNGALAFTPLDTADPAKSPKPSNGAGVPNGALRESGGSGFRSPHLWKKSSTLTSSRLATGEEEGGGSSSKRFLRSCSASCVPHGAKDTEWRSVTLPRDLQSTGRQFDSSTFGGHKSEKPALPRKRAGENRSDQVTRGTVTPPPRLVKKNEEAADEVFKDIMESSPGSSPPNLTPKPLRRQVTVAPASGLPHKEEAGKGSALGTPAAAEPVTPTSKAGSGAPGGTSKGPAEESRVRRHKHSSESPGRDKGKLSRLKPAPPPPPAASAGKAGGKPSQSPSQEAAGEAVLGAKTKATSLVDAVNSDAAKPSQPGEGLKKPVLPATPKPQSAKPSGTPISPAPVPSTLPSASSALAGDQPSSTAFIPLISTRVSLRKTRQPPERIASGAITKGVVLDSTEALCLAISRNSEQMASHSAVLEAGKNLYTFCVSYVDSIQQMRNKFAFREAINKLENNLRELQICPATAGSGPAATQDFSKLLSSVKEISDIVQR
Sequence of LRRK2 G2019S (Q5S007 whole entry G2019S): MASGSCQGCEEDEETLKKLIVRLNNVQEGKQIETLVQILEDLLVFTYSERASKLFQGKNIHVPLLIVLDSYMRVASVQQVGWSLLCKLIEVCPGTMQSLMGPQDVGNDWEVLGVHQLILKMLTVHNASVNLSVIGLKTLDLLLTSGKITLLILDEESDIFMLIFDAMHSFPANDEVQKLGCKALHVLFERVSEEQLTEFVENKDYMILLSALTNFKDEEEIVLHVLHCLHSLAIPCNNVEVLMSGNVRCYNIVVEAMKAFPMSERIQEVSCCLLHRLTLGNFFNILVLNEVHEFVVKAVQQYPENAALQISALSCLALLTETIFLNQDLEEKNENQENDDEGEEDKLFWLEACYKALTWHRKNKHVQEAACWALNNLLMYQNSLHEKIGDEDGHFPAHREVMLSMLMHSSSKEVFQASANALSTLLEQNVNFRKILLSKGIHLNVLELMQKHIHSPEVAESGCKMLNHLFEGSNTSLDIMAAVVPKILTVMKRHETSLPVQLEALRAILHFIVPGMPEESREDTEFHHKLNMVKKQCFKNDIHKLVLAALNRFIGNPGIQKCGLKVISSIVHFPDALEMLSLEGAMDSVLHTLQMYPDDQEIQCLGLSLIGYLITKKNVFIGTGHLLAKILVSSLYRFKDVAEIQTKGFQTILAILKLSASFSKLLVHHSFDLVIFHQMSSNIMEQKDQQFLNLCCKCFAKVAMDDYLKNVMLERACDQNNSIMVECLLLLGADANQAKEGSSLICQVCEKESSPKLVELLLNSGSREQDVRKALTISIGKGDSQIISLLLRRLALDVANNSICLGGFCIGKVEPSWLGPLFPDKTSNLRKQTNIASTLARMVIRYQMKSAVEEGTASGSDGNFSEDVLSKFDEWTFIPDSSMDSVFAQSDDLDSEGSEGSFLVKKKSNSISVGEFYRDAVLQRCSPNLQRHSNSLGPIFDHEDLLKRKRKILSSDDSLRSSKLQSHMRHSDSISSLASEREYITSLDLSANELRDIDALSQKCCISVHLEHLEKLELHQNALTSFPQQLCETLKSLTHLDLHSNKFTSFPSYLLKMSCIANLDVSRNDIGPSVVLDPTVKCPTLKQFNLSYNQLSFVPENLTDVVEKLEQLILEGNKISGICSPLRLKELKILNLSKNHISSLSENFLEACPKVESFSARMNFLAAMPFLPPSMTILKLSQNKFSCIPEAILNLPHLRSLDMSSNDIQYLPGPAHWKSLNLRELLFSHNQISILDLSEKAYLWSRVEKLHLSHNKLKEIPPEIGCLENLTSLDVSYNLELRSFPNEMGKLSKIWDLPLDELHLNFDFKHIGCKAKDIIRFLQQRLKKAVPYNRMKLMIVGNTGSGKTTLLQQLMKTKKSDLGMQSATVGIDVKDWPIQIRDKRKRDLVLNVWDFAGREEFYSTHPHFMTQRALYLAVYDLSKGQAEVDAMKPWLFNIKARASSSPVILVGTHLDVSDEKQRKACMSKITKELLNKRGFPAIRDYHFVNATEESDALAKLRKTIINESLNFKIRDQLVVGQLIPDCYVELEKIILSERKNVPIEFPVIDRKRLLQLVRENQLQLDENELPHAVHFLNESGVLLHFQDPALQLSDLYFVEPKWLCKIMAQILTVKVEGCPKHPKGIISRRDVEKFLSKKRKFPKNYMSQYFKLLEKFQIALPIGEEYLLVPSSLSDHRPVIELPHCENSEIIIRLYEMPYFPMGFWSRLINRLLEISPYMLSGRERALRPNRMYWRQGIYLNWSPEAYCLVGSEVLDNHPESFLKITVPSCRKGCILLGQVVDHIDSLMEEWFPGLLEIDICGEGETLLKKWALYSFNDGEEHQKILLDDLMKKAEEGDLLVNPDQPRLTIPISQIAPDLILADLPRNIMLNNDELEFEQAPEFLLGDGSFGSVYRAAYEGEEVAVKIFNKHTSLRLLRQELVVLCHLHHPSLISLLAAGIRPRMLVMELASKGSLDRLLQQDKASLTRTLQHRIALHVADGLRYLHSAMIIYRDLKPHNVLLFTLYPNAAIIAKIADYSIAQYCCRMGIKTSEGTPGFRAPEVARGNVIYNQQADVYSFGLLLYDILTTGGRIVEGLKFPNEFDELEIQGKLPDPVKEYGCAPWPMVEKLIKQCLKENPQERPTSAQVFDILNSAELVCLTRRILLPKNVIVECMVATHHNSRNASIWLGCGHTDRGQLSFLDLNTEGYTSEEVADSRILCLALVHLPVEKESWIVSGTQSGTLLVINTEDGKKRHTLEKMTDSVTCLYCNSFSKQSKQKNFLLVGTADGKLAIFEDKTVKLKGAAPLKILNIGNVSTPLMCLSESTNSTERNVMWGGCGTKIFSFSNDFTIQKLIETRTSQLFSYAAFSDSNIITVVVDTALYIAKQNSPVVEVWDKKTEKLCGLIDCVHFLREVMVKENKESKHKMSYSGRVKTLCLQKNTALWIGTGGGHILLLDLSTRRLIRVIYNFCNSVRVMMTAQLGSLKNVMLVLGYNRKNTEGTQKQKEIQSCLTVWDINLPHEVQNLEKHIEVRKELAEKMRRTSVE
Sequence of LRRK2 (WT) (Q5S007 whole entry): as the sequence (Q5S007 whole entry G2019S) above, with S2019G counted along it

As usually defined, the IC50 is the concentration that inhibits the measured activity by half. For `Cc1ccc(-c2cc[nH]n2)cc1-c1ccc2nc(NC(=O)[C@@H]3C[C@@H]3F)cn2c1` [Example 28, (1S,2S)-2-fluoro-N-(6-(2-methyl-5-(1H-pyrazol-3-yl)phenyl)imidazo[1,2-a]pyridin-2-yl)cyclopropane-1-carboxamide], the IC50 is 101 to 1000 nM in assay [1], 101 to 1000 nM in assay [2] and less than 10 nM in assay [3]. Consider `O=C(Nc1cn2cc(-c3cccc(F)c3F)ccc2n1)[C@@H]1C[C@@H]1F` [Example 62, (1S,2S)—N-(6-(2,3-difluorophenyl)imidazo[1,2-a]pyridin-2-yl)-2-fluorocyclopropanecarboxamide], for which the IC50 in assay [1] was 10 to 100 nM; in assay [2], 10 to 100 nM; in assay [3] it was less than 10 nM. In the case of `O=C(Nc1cn2cc(-c3cccc(F)c3O)ccc2n1)[C@@H]1C[C@@H]1F` [Example 89, (1S,2S)-2-fluoro-N-(6-(3-fluoro-2-hydroxyphenyl)imidazo[1,2-a]pyridin-2-yl)cyclopropanecarboxamide], in assay [3], the IC50 was less than 10 nM. As for `Nc1c(F)cccc1-c1ccc2nc(NC(=O)[C@@H]3C[C@@H]3F)cn2c1` [Example 90, (1S,2S)—N-(6-(2-amino-3-fluorophenyl)imidazo[1,2-a]pyridin-2-yl)-2-fluorocyclopropanecarboxamide], in assay [3], the IC50 is less than 10 nM. On to `Cc1cc2nc[nH]c2cc1-c1ccc2nc(NC(=O)[C@@H]3C[C@@H]3F)cn2c1` [Example 94, (1S,2S)-2-fluoro-N-(6-(5-methyl-1H-benzo[d]imidazol-6-yl)imidazo[1,2-a]pyridin-2-yl)cyclopropanecarboxamide], for which the IC50 in assay [3] is less than 10 nM. In the case of `O=C(Nc1cn2cc(-c3ccccc3C(F)(F)F)ccc2n1)[C@@H]1C[C@@H]1F` [Example 96], the IC50 in assay [3] was 10 to 100 nM. In the case of `CCc1c(F)cccc1-c1ccc2nc(NC(=O)[C@@H]3C[C@@H]3F)cn2c1` [Example 95, (1S,2S)—N-(6-(2-ethyl-3-fluorophenyl)imidazo[1,2-a]pyridin-2-yl)-2-fluorocyclopropanecarboxamide], in assay [3], the IC50 was less than 10 nM. The same measure, in the same setting: then `Cc1cc2ncoc2cc1-c1ccc2nc(NC(=O)[C@@H]3C[C@@H]3F)cn2c1` [Example 99, (1S,2S)-2-fluoro-N-(6-(5-methylbenzo[d]oxazol-6-yl)imidazo[1,2-a]pyridin-2-yl)cyclopropanecarboxamide], with less than 10 nM; and `Cc1c(F)cccc1-c1ccc2nc(NC(=O)[C@@H]3C[C@@H]3F)c(Br)n2c1` [Example 58, (1S,2S)—N-(3-bromo-6-(3-fluoro-2-methylphenyl)imidazo[1,2-a]pyridin-2-yl)-2-fluorocyclopropane-1-carboxamide], with 10 to 100 nM. Same read-out and setting: then `Cc1ccc2[nH]cnc2c1-c1ccc2nc(NC(=O)[C@@H]3C[C@@H]3F)cn2c1` [Example 100, (1S,2S)-2-fluoro-N-(6-(5-methyl-1H-benzo[d]imidazol-4-yl)imidazo[1,2-a]pyridin-2-yl)cyclopropane-1-carboxamide], with 10 to 100 nM. In the case of `Cc1c(-c2ccc3nc(NC(=O)[C@@H]4C[C@@H]4F)cn3c2)cnc2[nH]ccc12` [Example 86, (1S,2S)-2-fluoro-N-(6-(4-methyl-1H-pyrrolo[2,3-b]pyridin-5-yl)imidazo[1,2-a]pyridin-2-yl)cyclopropanecarboxamide], in assay [3], the IC50 was less than 10 nM.

Regarding `Cc1ccc2ocnc2c1-c1ccc2nc(NC(=O)[C@@H]3C[C@@H]3F)cn2c1` [Example 102, (1S,2S)-2-fluoro-N-(6-(5-methylbenzo[d]oxazol-4-yl)imidazo[1,2-a]pyridin-2-yl)cyclopropanecarboxamide], the IC50 in assay [3] was less than 10 nM.

Consider `CC(C)c1c(F)cccc1-c1ccc2nc(NC(=O)[C@@H]3C[C@@H]3F)cn2c1` [Example 105, (1S,2S)-2-fluoro-N-(6-(3-fluoro-2-isopropylphenyl)imidazo[1,2-a]pyridin-2-yl)cyclopropanecarboxamide], for which the IC50 in assay [3] lay in the range of 101 to 1000 nM. For the molecule `CNc1c(F)cccc1-c1ccc2nc(NC(=O)[C@@H]3C[C@@H]3F)cn2c1` [Example 98, (1S,2S)-2-fluoro-N-(6-(3-fluoro-2-(methylamino)phenyl)imidazo[1,2-a]pyridin-2-yl)cyclopropanecarboxamide], the IC50 in assay [3] was less than 10 nM. For `O=C(Nc1cn2cc(-c3cccc(F)c3C3CC3)ccc2n1)[C@@H]1C[C@@H]1F` [Example 97, (1S,2S)—N-(6-(2-cyclopropyl-3-fluorophenyl)imidazo[1,2-a]pyridin-2-yl)-2-fluorocyclopropanecarboxamide], the IC50 in assay [3] is less than 10 nM. In the case of `Cc1cc2ncsc2cc1-c1ccc2nc(NC(=O)[C@@H]3C[C@@H]3F)cn2c1` [Example 103, (1S,2S)-2-fluoro-N-(6-(5-methylbenzo[d]thiazol-6-yl)imidazo[1,2-a]pyridin-2-yl)cyclopropanecarboxamide], the IC50 in assay [3] was less than 10 nM. For the molecule `Cc1cc2[nH]ccc2cc1-c1ccc2nc(NC(=O)[C@@H]3C[C@@H]3F)cn2c1` [Example 92, (1S,2S)-2-fluoro-N-(6-(6-methyl-1H-indol-5-yl)imidazo[1,2-a]pyridin-2-yl)cyclopropanecarboxamide], the IC50 in assay [3] was less than 10 nM. With `COc1ccncc1-c1ccc2nc(NC(=O)[C@@H]3C[C@@H]3F)cn2c1` [Example 48, (1S,2S)-2-fluoro-N-(6-(4-methoxypyridin-3-yl)imidazo[1,2-a]pyridin-2-yl)cyclopropane-1-carboxamide], the IC50 in assay [1] and in assay [2] was 10 to 100 nM in each case. For the molecule `Cc1cccc(C)c1-c1ccc2nc(NC(=O)[C@@H]3C[C@@H]3F)cn2c1` [Example 42, (1S,2S)—N-(6-(2,6-dimethylphenyl)imidazo[1,2-a]pyridin-2-yl)-2-fluorocyclopropane-1-carboxamide], the half-maximal inhibitory concentration (IC50) in assay [1] and in assay [2] was 101 to 1000 nM in each case. For `Cc1c(-c2ccc3nc(NC(=O)[C@@H]4C[C@@H]4F)cn3c2)ccc2ncsc12` [Example 104, (1S,2S)-2-fluoro-N-(6-(7-methylbenzo[d]thiazol-6-yl)imidazo[1,2-a]pyridin-2-yl)cyclopropanecarboxamide], the IC50 in assay [3] was less than 10 nM. For `Cc1cc2cc[nH]c2cc1-c1ccc2nc(NC(=O)[C@@H]3C[C@@H]3F)cn2c1` [Example 91, (1S,2S)-2-fluoro-N-(6-(5-methyl-1H-indol-6-yl)imidazo[1,2-a]pyridin-2-yl)cyclopropanecarboxamide], the IC50 in assay [3] is less than 10 nM.

As to `Cc1c(F)cccc1-c1ccc2nc(NC(=O)C3CC3(F)F)cn2c1` (centres unmarked) [Example 77, 2,2-difluoro-N-(6-(3-fluoro-2-methylphenyl)imidazo[1,2-a]pyridin-2-yl)cyclopropanecarboxamide], the results for the IC50 in assay [1] and in assay [2] were 10 to 100 nM and 101 to 1000 nM, respectively. With `O=C(Nc1cn2cc(-c3cnc4[nH]ccc4c3Cl)ccc2n1)[C@@H]1C[C@@H]1F` [Example 87, (1S,2S)—N-(6-(4-chloro-1H-pyrrolo[2,3-b]pyridin-5-yl)imidazo[1,2-a]pyridin-2-yl)-2-fluorocyclopropanecarboxamide], in assay [3], the IC50 was less than 10 nM. On the same count and under the same terms, then `Cc1ccccc1-c1ccc2nc(NC(=O)[C@@H]3C[C@@H]3F)cn2c1` [Example 88, (1S,2S)-2-fluoro-N-(6-(o-tolyl)imidazo[1,2-a]pyridin-2-yl)cyclopropanecarboxamide], with less than 10 nM.

With `CN(C)c1c(F)cccc1-c1ccc2nc(NC(=O)[C@@H]3C[C@@H]3F)cn2c1` [Example 93, (1S,2S)—N-(6-(2-(dimethylamino)-3-fluorophenyl)imidazo[1,2-a]pyridin-2-yl)-2-fluorocyclopropanecarboxamide], in assay [3], the IC50 is 10 to 100 nM.
